≈ marks a conversion by molar mass, not a printed value.
How the values were obtained:
[1] = Unbound fraction in mouse plasma; assay type: ADME, cell-free
[2] = AUClast in Cynomolgous monkey at 50 mg/kg, po; assay type: ADME, organism-based, Macaca fascicularis; parameters: dose 50 mg/kg, route po; conditions: cynomolgus monkey, in vivo
[3] = Stability in human hepatocytes assessed as half life; assay type: ADME, cell-based, Hepatocyte
[4] = Apparent permeability of compound across basal to apical side in human Caco2 cells at 10 uM incubated for 120 mins by LC-MS/MS analysis; conditions: Caco-2
MDA-MB-231 [5] = experiment: Antitumor activity against human MDA-MB-231 cells xenografted in humanized NCG mouse assessed as […] in tumor-infiltrating CD8+ T cells administered intragastrically twice everyday; assay type: functional, cell-based; conditions: dose 2-50 mg/kg, route ig
Cytochrome P450 2D6 = Cytochrome P450 2D6 (Homo sapiens, UniProt P10635); experiment: Inhibition of CYP2D6 (unknown origin); assay type: ADME
Sequence of Cytochrome P450 2D6 (P10635 whole entry): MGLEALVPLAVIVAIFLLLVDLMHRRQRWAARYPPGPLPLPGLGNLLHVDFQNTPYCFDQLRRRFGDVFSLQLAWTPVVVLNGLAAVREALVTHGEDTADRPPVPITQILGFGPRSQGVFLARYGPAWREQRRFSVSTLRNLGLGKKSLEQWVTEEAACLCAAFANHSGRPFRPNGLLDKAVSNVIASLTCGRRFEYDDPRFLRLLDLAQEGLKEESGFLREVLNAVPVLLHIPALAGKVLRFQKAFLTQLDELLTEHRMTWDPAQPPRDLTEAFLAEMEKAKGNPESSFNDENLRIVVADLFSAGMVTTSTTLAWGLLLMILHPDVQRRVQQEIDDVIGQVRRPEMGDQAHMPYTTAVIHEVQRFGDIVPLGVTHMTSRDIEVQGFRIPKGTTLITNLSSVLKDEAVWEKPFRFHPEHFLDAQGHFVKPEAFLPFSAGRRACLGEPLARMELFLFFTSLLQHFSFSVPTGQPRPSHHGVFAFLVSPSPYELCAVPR

[6] = Stability in rat liver microsomes assessed as half life; assay type: ADME, Microsome
[7] = Oral bioavailability in Cynomolgous monkey at 50 mg/kg; assay type: ADME, organism-based, Macaca fascicularis; conditions: cynomolgus monkey, in vivo
[8] = Stability in mouse hepatocytes assessed as half life; assay type: ADME, cell-based, Hepatocyte
Cytochrome P450 2B6 = molecular target: T1, Cytochrome P450 2B6 (Homo sapiens, UniProt P20813); experiment: Inhibition of CYP2B6 (unknown origin); assay type: ADME
T1 sequence (P20813 whole entry): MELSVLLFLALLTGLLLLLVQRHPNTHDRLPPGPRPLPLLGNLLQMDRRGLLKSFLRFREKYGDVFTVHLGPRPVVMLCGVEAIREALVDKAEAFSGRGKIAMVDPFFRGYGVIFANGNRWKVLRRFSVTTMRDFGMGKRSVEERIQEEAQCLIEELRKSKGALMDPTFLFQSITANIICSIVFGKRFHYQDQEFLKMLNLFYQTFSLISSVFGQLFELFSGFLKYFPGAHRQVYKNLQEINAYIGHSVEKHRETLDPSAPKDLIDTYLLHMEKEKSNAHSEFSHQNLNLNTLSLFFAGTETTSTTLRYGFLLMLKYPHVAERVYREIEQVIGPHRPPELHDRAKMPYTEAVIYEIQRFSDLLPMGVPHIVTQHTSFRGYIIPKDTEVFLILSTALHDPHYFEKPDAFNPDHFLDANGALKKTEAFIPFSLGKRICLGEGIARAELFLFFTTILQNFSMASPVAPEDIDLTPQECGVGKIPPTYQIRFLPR

[9] = Unbound fraction in human plasma; assay type: ADME, cell-free
[10] = AUClast in Sprague-Dawley rat at 50 mg/kg, po; assay type: ADME, organism-based; parameters: dose 50 mg/kg, route po; conditions: in vivo
[11] = Oral bioavailability in Sprague-Dawley rat at 50 mg/kg; assay type: ADME, organism-based; conditions: in vivo
[12] = Toxicity in humanized NCG mouse xenografted with human MDA-MB-231 cells administered intragastrically twice everyday; conditions: in vivo, po
[13] = Clearance in Cynomolgous monkey at 1 mg/kg, iv; assay type: ADME, organism-based, Macaca fascicularis; conditions: cynomolgus monkey, in vivo
MDA-MB-231 [14] = experiment: Antitumor activity against human MDA-MB-231 cells xenografted in humanized NCG mouse assessed as decrease in tumor-infiltrating Treg cells administered intragastrically twice everyday; assay type: functional, cell-based; conditions: dose 2-50 mg/kg, route ig
[15] = Solubility of compound in PBS at pH 7.4 incubated for 2 hrs by LC-MS/MS analysis; assay type: physicochemical

fraction unbound [1]: 0.449
AUC(0-t) [2]: 28900 ng·h/mL
half-life [3]: 8.7 h
Papp B→A at 2 h, 10 µM [4]: 17.2 ×10⁻⁶ cm/s
IC50 (Cytochrome P450 2D6): > 10 µM
half-life [6]: 2.5 h
bioavailability [7]: 105%
half-life [8]: 43.5 h
IC50 (Cytochrome P450 2B6): > 10 µM
fraction unbound [9]: 0.358
AUC(0-t) [10]: 13600 ng·h/mL
bioavailability [11]: 66%
clearance [13]: 31.1 mL/min/kg
solubility at 2 h [15]: 254 µM (≈ 109 µg/mL)
SMILES: Cc1cc(S(=O)(=O)N[C@H](C)C2CCN(C)CC2)ccc1NC(=O)c1ccccc1C
Activity (MDA-MB-231 [5]): Dose-Dependent Effect
MED [12]: 10 mg/kg
Activity (MDA-MB-231 [14]): Dose-Dependent Effect

From ChEMBL document CHEMBL5380842, “Discovery of a Potent and Selective CCR8 Small Molecular Antagonist IPG7236 for the Treatment of Cancer” (J Med Chem, 2023)
